Key:
Type in all cases: functional
Tobacco mosaic virus [1] = test: Antiviral activity against Tobacco mosaic virus (TMV) inoculated on whole Nicotiana tabacum leaves followed by smearing with 100 ug/mL compound solution on left side of leaves assessed as viral infection curative effect measured 3 to 4 days post viral infection
Tobacco mosaic virus [2] = test: Antiviral activity against Tobacco mosaic virus (TMV) inoculated on whole Nicotiana tabacum leaves followed by smearing with 500 ug/mL compound solution on left side of leaves assessed as viral infection curative effect measured 3 to 4 days post viral infection
Tobacco mosaic virus [3] = test: Antiviral activity against Tobacco mosaic virus (TMV) pre-treated with 100 ug/mL compound for 30 min followed by inoculation on left side of Nicotiana tabacum leaves assessed as virus inactivation effect measured 3 to 4 days post viral infection
Tobacco mosaic virus [4] = test: Antiviral activity against Tobacco mosaic virus (TMV) pre-treated with 500 ug/mL compound for 30 min followed by inoculation on left side of Nicotiana tabacum leaves assessed as virus inactivation effect measured 3 to 4 days post viral infection
Tobacco mosaic virus [5] = test: Antiviral activity against Tobacco mosaic virus (TMV) inoculated on 100 ug/mL compound smeared Nicotiana tabacum leaves assessed as protective effect against viral infection measured 3 to 4 days post viral infection
Tobacco mosaic virus [6] = test: Antiviral activity against Tobacco mosaic virus (TMV) inoculated on 500 ug/mL compound smeared Nicotiana tabacum leaves assessed as protective effect against viral infection measured 3 to 4 days post viral infection

COc1cc2cc(C(=O)NCCCCCCO)c3cc(OC)c(OC)cc3c2cc1OC
Activity (Tobacco mosaic virus [1]): 49.6% | Activity (Tobacco mosaic virus [2]): 65% | Activity (Tobacco mosaic virus [3]): 57.8% | Activity (Tobacco mosaic virus [4]): 60.9% | Activity (Tobacco mosaic virus [5]): 22.5% | Activity (Tobacco mosaic virus [6]): 41.7%

CNCC(=O)N[C@@H](CO)C(=O)N[C@H]1[C@H](O)[C@@H](O)[C@H](n2ccc(N)nc2=O)O[C@@H]1C(N)=O [NINGNANMYCIN]
Activity (Tobacco mosaic virus [1]): 39% | Activity (Tobacco mosaic virus [2]): 47.9% | Activity (Tobacco mosaic virus [3]): 48% | Activity (Tobacco mosaic virus [4]): 68.4% | Activity (Tobacco mosaic virus [5]): 47.5% | Activity (Tobacco mosaic virus [6]): 48.7%

COc1cc2c3c(c4cc(OC)c(OC)cc4c2cc1OC)CN1CCC[C@@H]1C3 [TYLOPHORINE]
Activity (Tobacco mosaic virus [1]): 57.7% | Activity (Tobacco mosaic virus [2]): 65.9% | Activity (Tobacco mosaic virus [3]): 56.4% | Activity (Tobacco mosaic virus [4]): 62.6% | Activity (Tobacco mosaic virus [5]): 37.9% | Activity (Tobacco mosaic virus [6]): 53.3%

COC(=O)[C@@H]1CCCN1Cc1cc2cc(OC)c(OC)cc2c2cc(OC)c(OC)cc12
Activity (Tobacco mosaic virus [1]): 2.9% | Activity (Tobacco mosaic virus [2]): 33.7% | Activity (Tobacco mosaic virus [3]): 54.7% | Activity (Tobacco mosaic virus [4]): 80% | Activity (Tobacco mosaic virus [5]): 38.3% | Activity (Tobacco mosaic virus [6]): 47.1%

COC(=O)C1CCCCN1Cc1cc2cc(OC)c(OC)cc2c2cc(OC)c(OC)cc12 (stereo not drawn)
Activity (Tobacco mosaic virus [1]): 1.2% | Activity (Tobacco mosaic virus [2]): 11.8% | Activity (Tobacco mosaic virus [3]): 50.2% | Activity (Tobacco mosaic virus [4]): 59.1% | Activity (Tobacco mosaic virus [5]): 27.1% | Activity (Tobacco mosaic virus [6]): 64.6%

COc1cc2cc(CN3CCCCC3CO)c3cc(OC)c(OC)cc3c2cc1OC (stereo not drawn)
Activity (Tobacco mosaic virus [1]): 36.2% | Activity (Tobacco mosaic virus [2]): 46.8% | Activity (Tobacco mosaic virus [3]): 5.2% | Activity (Tobacco mosaic virus [4]): 8.4% | Activity (Tobacco mosaic virus [5]): 4.6% | Activity (Tobacco mosaic virus [6]): 21.3%

COc1cc2cc(CN3CCCCC3C(=O)O)c3cc(OC)c(OC)cc3c2cc1OC (stereo not drawn)
Activity (Tobacco mosaic virus [1]): 28.9% | Activity (Tobacco mosaic virus [2]): 45.1% | Activity (Tobacco mosaic virus [3]): 38.7% | Activity (Tobacco mosaic virus [4]): 68.9% | Activity (Tobacco mosaic virus [5]): 10% | Activity (Tobacco mosaic virus [6]): 12.9%

COc1cc2cc(CN3CCC[C@H]3CO)c3cc(OC)c(OC)cc3c2cc1OC
Activity (Tobacco mosaic virus [1]): 13.4% | Activity (Tobacco mosaic virus [2]): 34.6% | Activity (Tobacco mosaic virus [3]): 36.9% | Activity (Tobacco mosaic virus [4]): 74.2% | Activity (Tobacco mosaic virus [5]): 10.4% | Activity (Tobacco mosaic virus [6]): 19.2%

COC(=O)C1CCCCN1C(=O)c1cc2cc(OC)c(OC)cc2c2cc(OC)c(OC)cc12 (stereo not drawn)
Activity (Tobacco mosaic virus [1]): 4.9% | Activity (Tobacco mosaic virus [2]): 17.9% | Activity (Tobacco mosaic virus [3]): 4.4% | Activity (Tobacco mosaic virus [4]): 17.3% | Activity (Tobacco mosaic virus [5]): 12.5% | Activity (Tobacco mosaic virus [6]): 56.3%

COc1cc2cc(CN3CCC(O)CC3)c3cc(OC)c(OC)cc3c2cc1OC
Activity (Tobacco mosaic virus [1]): 33.7% | Activity (Tobacco mosaic virus [2]): 37.4% | Activity (Tobacco mosaic virus [3]): 9.3% | Activity (Tobacco mosaic virus [4]): 71.1% | Activity (Tobacco mosaic virus [5]): 11.3% | Activity (Tobacco mosaic virus [6]): 70.8%

COC(=O)CCCCCNC(=O)c1cc2cc(OC)c(OC)cc2c2cc(OC)c(OC)cc12
Activity (Tobacco mosaic virus [1]): 48% | Activity (Tobacco mosaic virus [2]): 65.9% | Activity (Tobacco mosaic virus [3]): 5.8% | Activity (Tobacco mosaic virus [4]): 6.7% | Activity (Tobacco mosaic virus [5]): 14.2% | Activity (Tobacco mosaic virus [6]): 54.6%

COC(=O)[C@@H]1CCCN1C(=O)c1cc2cc(OC)c(OC)cc2c2cc(OC)c(OC)cc12
Activity (Tobacco mosaic virus [1]): 10.6% | Activity (Tobacco mosaic virus [2]): 64.6% | Activity (Tobacco mosaic virus [3]): 8% | Activity (Tobacco mosaic virus [4]): 8.4% | Activity (Tobacco mosaic virus [5]): 19.2% | Activity (Tobacco mosaic virus [6]): 56.7%

COc1cc2cc(CN3CCC[C@H]3C(=O)O)c3cc(OC)c(OC)cc3c2cc1OC
Activity (Tobacco mosaic virus [1]): 14.2% | Activity (Tobacco mosaic virus [2]): 54.1% | Activity (Tobacco mosaic virus [3]): 21.3% | Activity (Tobacco mosaic virus [4]): 39.6% | Activity (Tobacco mosaic virus [5]): 23.3% | Activity (Tobacco mosaic virus [6]): 35.4%
